Here are results for 5 compounds from article PMC3842914, “Meleagrin, a New FabI Inhibitor from Penicillium chryosogenum with at Least One Additional Mode of Action” (PLoS ONE, 2013).

Molecules are shown by their SMILES. In brackets after ≈: the same amount, converted by molar mass. Read-outs that look alike come from different tables or passages of the source. Where only a bound is given, the exact number is not on record here.

Experiment [1] addresses T1, S. aureus FabI (Staphylococcus aureus, UniProt Q6GI75).
T1 construct: made in house
T1 sequence (Q6GI75 1-256): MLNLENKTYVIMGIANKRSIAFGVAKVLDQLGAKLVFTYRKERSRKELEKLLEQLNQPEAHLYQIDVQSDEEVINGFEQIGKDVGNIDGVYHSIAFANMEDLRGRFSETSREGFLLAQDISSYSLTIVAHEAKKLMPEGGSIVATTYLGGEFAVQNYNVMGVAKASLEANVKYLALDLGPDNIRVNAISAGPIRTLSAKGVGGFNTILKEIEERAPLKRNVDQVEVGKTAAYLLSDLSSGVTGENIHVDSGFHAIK
Put plainly: Fluorescence quenching assay (direct binding). The settings on record: increasing amounts of compound; FabI fluorescence at 307 nm. The procedure:
Fluorescence spectra were measured using a SHIMADZU fluorescence spectrophotometer (model RF-5310PC). […] Protein quenching was monitored at 25°C by using 5-nm excitation and 5-nm emission wavelength. The excitation wavelength was 280 nm, and the emission spectra were measured between 290 and 430 nm.

Experiment [2] concerns S. aureus KCTC 1916. As to the kind of experiment: MIC, S. aureus KCTC 1916. It counts as cell-based. The settings on record: Staphylococcus aureus, KCTC1916. The procedure: (§1) Whole-cell antimicrobial activity was determined by broth microdilution as described previously. The test strains except for S. pneumoniae were grown to mid-log phase in Mueller–Hinton broth and diluted 1,000-fold in the same medium. Cells (10^5/mL) were inoculated into Mueller–Hinton broth and dispensed at 0.2 mL/well into a 96-well microtiter plate. S. pneumoniae was grown in tryptic soy broth supplemented with 5% sheep blood. MICs were determined in triplicate by serial 2-fold dilutions of test compounds. […] Bacterial growth was determined by measuring the absorption at 650 nm by using a microtiter ELISA reader.

The subject of experiment [3] is S. aureus KCTC 1916. Type of experiment: cell-based, Staphylococcus aureus. The conditions noted are these: exposure 4× MIC. The procedure: (§2) The frequency of spontaneous resistance was determined for S. aureus RN4220, S. aureus KCTC 1916, and E. coli KCTC 1942. […] The organisms were grown to log-phase by dilution of an overnight culture in fresh media and re-incubation at 35°C until the cultures reached a cell density of approximately 10^9 CFU/mL. […] Inocula were determined by applying 100 μl of 10-fold dilutions on solid media without drug. Colony-forming units were counted after 48 h incubation at 35°C. The ratio of the number of colonies on drug-containing plates to that on control plates was calculated as the in vitro frequency of isolation of CFU.

Experiment [4] has as its system S. aureus RN4220. It counts as cell-based, Staphylococcus aureus. The conditions noted are these: exposure 4× MIC. The procedure:
as §2

The test system of experiment [5] is E. coli KCTC 1924. Type of experiment: cell-based. The settings on record: exposure 4× MIC. The procedure: as §2
Experiment [6] relates to S. aureus RN4220. As to the kind of experiment: Inhibition of macromolecular biosynthesis (radiolabeled precursor incorporation) in S. aureus. Type of experiment: cell-based, Staphylococcus aureus. The settings on record: drugs at 2 times the MIC. The procedure: (§3) To monitor the effects of compound 1 on lipid, DNA, RNA, protein, and cell wall biosynthesis, its effects on the incorporation of [1-^14C] acetate (50 mCi/mmol), [2-^14C] thymidine (59.8 mCi/mmol), [U-^14C] uridine (539 mCi/mmol), L-[U-^14C] leucine (306 mCi/mmol) or L-[U-^14C] isoleucine (329 mCi/mmol), and N-acetyl-D-[1-^14C] glucosamine (58.1 mCi/mmol) into S. aureus and S. pneumoniae were measured as described previously. S. aureus was exponentially grown to an A650 of 0.2 in Mueller–Hinton broth. S. pneumoniae was grown in tryptic soy broth supplemented with 5% sheep blood. […] An equal volume of DMSO solvent was added to the untreated control. After incubation with the radiolabeled precursors at 37°C for 1 h, followed by centrifugation, the cell pellets were washed twice with PBS buffer. After acetate incorporation, the total cellular lipids were extracted with chloroform-methanol-water. The incorporated radioactivity in the chloroform phase was measured by scintillation counting. For the other precursors, incorporation was terminated by adding 10% (w/v) TCA and cooling on ice for 20 min. The precipitated material was collected on Whatman GF/C glass microfiber filters, washed with TCA and ethanol, dried, and counted using a scintillation counter. The total counts incorporated at 1 h of incubation without inhibitors ranged from >7,000 for [U-^14C] uridine to <13,000 for [1-^14C] acetate. […] In all experiments, known antibacterial agents were included as positive controls.

The test system of experiment [7] is S. pneumoniae KCTC 3932. As to the kind of experiment: Inhibition of macromolecular biosynthesis (radiolabeled precursor incorporation) in S. pneumoniae. The settings on record: drugs at 2 times the MIC. Type of experiment: cell-based, Streptococcus pneumoniae. The procedure: as §3
For experiment [8], the system named is E. coli EW1b. As to the kind of experiment: Overexpression assay, MIC for pump-negative (tolC) E. coli EW1b. It counts as cell-based. The conditions noted are these: Escherichia coli. The procedure:
as §1
(§4) An overexpression assay using S. aureus RN4220, S. aureus RN4220 (pE194), and S. aureus RN4220 (pE194-fabI) was conducted to perform target validation of FabI inhibitors as described previously. Additionally, both fabI- and fabK-overexpressing E. coli were constructed to test a multitarget effect of the compounds. The wild-type fabI gene from the genomic DNA of E. coli W3110 was amplified by PCR by using the primers 5′-[…]-3′ and 5′-[…]-3′. The wild-type fabK gene from the genomic DNA of S. pneumoniae KCTC 5412 was amplified by PCR by using the primers 5′-[…]-3′ and 5′-[…] […]-3′. The resulting products were cloned into the pBAD-TOPO TA expression vector (Invitrogen, Carlsbad, CA, USA) to yield the pBAD-fabI and pBAD-fabK recombinant plasmids, which placed the expression of the genes fabI and fabK, respectively, under the control of the arabinose promoter. Recombinant pBAD-fabI and pBAD-fabK were then introduced into the pump-negative (tolC) E. coli EW1b via electroporation to generate E. coli EW1b (pBAD-fabI) and E. coli EW1b (pBAD-fabK), respectively.

Experiment [9] has as its system E. coli EW1b(pBAD). Put plainly: Overexpression assay, MIC for vector-containing E. coli EW1b (pBAD). Type of experiment: cell-based. The conditions noted are these: Escherichia coli. The procedure: as §1, §4
Experiment [10] concerns E. coli EW1b(pBAD-fabI). Put plainly: Overexpression assay, MIC for fabI-overexpressing E. coli EW1b (pBAD-fabI). The conditions noted are these: for MIC for fabI-overexpressing E. coli relative to wild-type and vector-containing E. coli: E. coli EW1b (pBAD-fabI) vs E. coli EW1b and E. coli EW1b (pBAD), in the presence of arabinose; for MIC: Escherichia coli. It counts as cell-based. The procedure: as §1, §4

The test system of experiment [11] is E. coli EW1b(pBAD-fabK). As to the kind of experiment: Overexpression assay, MIC for fabK-overexpressing E. coli EW1b (pBAD-fabK). Type of experiment: cell-based. The settings on record: Escherichia coli. The procedure:
as §1, §4

Experiment [12] in a line: MIC against other gram-positive bacteria. It counts as cell-based. The conditions noted are these: Staphylococcus aureus. The procedure: as §1
Setting [13] is: read-out: MIC E. coli EW1b (+) Ara.
[14] abbreviates: read-out: MIC E. coli EW1b (−) Ara.
Setting [15] is: read-out: MIC E. coli EW1b(pBAD) (+) Ara.
Where [16] appears, read: read-out: MIC E. coli EW1b(pBAD) (−) Ara.
[17] abbreviates: read-out: MIC E. coli EW1b(pBAD-fabI) (+) Ara.
The mark [18] stands for this setting: read-out: MIC E. coli EW1b(pBAD-fabI) (−) Ara.
The mark [19] stands for this setting: read-out: MIC E. coli EW1b(pBAD-fabK) (+) Ara.
Where [20] appears, read: read-out: MIC E. coli EW1b(pBAD-fabK) (−) Ara.

A word on the MIC: it is the least concentration at which growth counts as inhibited. Regarding `C=CC(C)(C)C12C=C(O)C(=O)N3/C(=C/c4cnc[nH]4)C(=O)NC31N(OC)c1ccccc12` (stereo not shown) [Compound 1, meleagrin], the “Fluorescence quenching of S. aureus FabI” value in [1] is listed as “same pattern as compound 5”. Besides, the MIC in experiment [2] turned out to be 32 µg/mL (≈ 73.8 µM); in [8] (setting [13]), 32 µg/mL (≈ 73.8 µM); in experiment [8] (setting [14]), 32 µg/mL (≈ 73.8 µM); in [9] (setting [15]), 32 µg/mL (≈ 73.8 µM); in experiment [9] (setting [16]), 32 µg/mL (≈ 73.8 µM); in [10] (setting [17]), 128 µg/mL (≈ 295 µM). In addition, the MIC in experiment [10] (setting [18]), in experiment [11] (setting [19]) and in experiment [11] (setting [20]) was 32 µg/mL (≈ 73.8 µM) throughout. The Frequency of resistance in [3] is given as <1.03×10^−10; in experiment [4] it was <1.62×10^−10; in experiment [5], <6.7×10^−9. Also, the “Inhibition of precursor incorporation, L-[U-14C] Isoleucine” value worked out at 6% in experiment [6] and 9% in experiment [7]. In addition, the “Inhibition of precursor incorporation, N-Acetyl-D-[1-14C] Glucosamine” value in [6] is on record as 25%; in experiment [7] it was 3%. Also, the results for the “Inhibition of precursor incorporation, [1-14C] Acetate” value in experiment [6] and in experiment [7] were 62% and 65%, respectively. Besides, the “Inhibition of precursor incorporation, [2-14C] Thymidine” value in experiment [6] came out at 13%; in [7], 15%. For the same compound, the “Inhibition of precursor incorporation, [U-14C] Uridine” value in [6] is recorded as 17%; in experiment [7], 2%. Besides, the “MIC for fabI-overexpressing E. coli relative to wild-type and vector-containing E. coli” value in [10] turned out to be 4 fold.

Turning to `C=CC(C)(C)C12C=C(OC)C(=O)N3/C(=C/c4cnc[nH]4)C(=O)N(C)C31N(OC)c1ccccc12` (stereo not shown) [Compound 5, O,N^14-dimethylmeleagrin], in experiment [1], the “Fluorescence quenching of S. aureus FabI” value is on record as “fluorescence intensity decreased gradually”. Further, the MIC in experiment [12] (other gram-positive bacteria incl. MRSA and QRSA strains, read-out: MIC) was 8 to 16 µg/mL (≈ 17.3 to 34.7 µM); in [2] (S. aureus KCTC 1916, read-out: MIC), 16 µg/mL (≈ 34.7 µM); in experiment [8] (setting [13]) it was 16 µg/mL (≈ 34.7 µM); in [8] (setting [14]), 16 µg/mL (≈ 34.7 µM); in experiment [9] (setting [15]), 16 µg/mL (≈ 34.7 µM); in experiment [9] (setting [16]) it was 16 µg/mL (≈ 34.7 µM). Moreover, the MIC came to 64 µg/mL (≈ 139 µM) in [10] (setting [17]), 16 µg/mL (≈ 34.7 µM) in experiment [10] (setting [18]), 16 µg/mL (≈ 34.7 µM) in experiment [11] (setting [19]) and 16 µg/mL (≈ 34.7 µM) in [11] (setting [20]). Moreover, the values for the Frequency of resistance in experiment [3], in experiment [4] and in experiment [5] were <1.03×10^−10, <1.62×10^−10 and <6.7×10^−9, respectively. Further, the “MIC for fabI-overexpressing E. coli relative to wild-type and vector-containing E. coli” value in [10] amounted to 4 fold.

`C=CC(C)(C)C12C=C(OC)C(=O)N3/C(=C/c4cnc[nH]4)C(=O)N(C)C31Nc1ccccc12` (stereo not shown) [Compound 6, O,N^14-dimethylglandicolin]: the minimal inhibitory concentration (MIC) in experiment [12] is 8 to 16 µg/mL (≈ 18.5 to 37.1 µM).

Consider `C=CC(C)(C)C12C=C(O)C(=O)N3/C(=C/c4cnc[nH]4)C(=O)NC31Nc1c(Br)cccc12` (stereo not shown) [Compound 7], for which the “Fluorescence quenching of S. aureus FabI” value in experiment [1] is on record as “did not exhibit such an effect”.

Turning to `Oc1cc(Cl)ccc1Oc1ccc(Cl)cc1Cl` [Triclosan, reference compound], in [1], the “Fluorescence quenching of S. aureus FabI” value is “resulted in fluorescence quenching”. The minimum inhibitory concentration (MIC) is 0.01 µg/mL (≈ 0.0345 µM) in [2]; 0.002 µg/mL (≈ 0.00691 µM) in experiment [8] (setting [13]); 0.002 µg/mL (≈ 0.00691 µM) in [8] (setting [14]); 0.002 µg/mL (≈ 0.00691 µM) in experiment [9] (setting [15]); 0.002 µg/mL (≈ 0.00691 µM) in experiment [9] (setting [16]); greater than 0.08 µg/mL in experiment [10] (setting [17]). Besides, the minimum inhibitory concentration (MIC) in experiment [10] (setting [18]) was 0.002 µg/mL (≈ 0.00691 µM); in experiment [11] (setting [19]), greater than 0.08 µg/mL; in experiment [11] (setting [20]), 0.002 µg/mL (≈ 0.00691 µM). Besides, the “Inhibition of precursor incorporation, [1-14C] Acetate” value in experiment [6] is recorded as 87%.
